Results on four molecules are retold here after patent EP0714884A1, “A method for the production of a basic amino acid” (Ajinomoto Co., Inc., priority 1994, dated 1996).

The data set in a line: Filterability evaluation: time period required for filtration through a membrane filter. The class given is physicochemical. To be noted: for filterability: neutral to acidic pH, result in words; for Filtration period of aqueous solution: L-arginine 5g/dl, 30°C, 1.4 ℓ, 2 x 10⁵ Pa, Millipore 0.22 µmGS membrane filter. As for the experimental part:
The dried purified crystals were obtained by the three method described above were filtered under the condition shown below to compare the filterability. The pH was adjusted with 2N aqueous solution of HCl, and the filterability was evaluated by determining the time period required for the filtration.
The dried purified crystals obtained by the method described above were filtered under conditions similar to those in Example 1 to evaluate the filterability.

On to `N=C(N)NCCC[C@H](N)C(=O)O` [Conventional method, L-arginine], for which the filterability entry is on record as “extremely poor filterability”. Besides, the “Filtration period of aqueous solution” value (pH 3) is listed as “Occlusion”. Also, the “Filtration period of aqueous solution” value (pH 5) was 8000 s. The “Filtration period of aqueous solution” value (pH 7) was determined as 1510 s. The “Filtration period of aqueous solution” value (pH 11) was found to be 1010 s.
With `N=C(N)NCCC[C@H](N)C(=O)O` [LR-O method, L-arginine], the filterability entry is “no deterioration of the filterability”. Under “pH 3”, the “Filtration period of aqueous solution” value came to 920 s. The “Filtration period of aqueous solution” value (pH 5) was 880 s. Further, under “pH 7”, the “Filtration period of aqueous solution” value is 910 s. In addition, where the note is “pH 11”, the “Filtration period of aqueous solution” value came to 930 s.
Turning to `N=C(N)NCCC[C@H](N)C(=O)O` [Solution of purified crystals by LR-O method] [L-arginine], the “Filtration period of aqueous solution” value turned out to be 914 s (pH 3), 920 s (pH 5), 918 s (pH 7) and 921 s (pH 11).
For the molecule `N=C(N)NCCC[C@H](N)C(=O)O` [UF method, L-arginine], the filterability result is reported as “extremely poor filterability”. Moreover, the “Filtration period of aqueous solution” value (pH 3) is “Occlusion”. For the same molecule, the “Filtration period of aqueous solution” value (pH 5) is 2640 s. The “Filtration period of aqueous solution” value (pH 7) was 1400 s. Moreover, for the setting “pH 11”, the “Filtration period of aqueous solution” value was 850 s.
